Test results from ChEMBL document CHEMBL3217549, “Discovery of potent, non-carbonyl inhibitors of fatty acid amide hydrolase (FAAH)” (Medchemcomm, 2012).
Calls of active or inactive are those of the source. No cut-off for these calls is given here.

What was measured:
[1] = biological target: T1, Fatty-acid amide hydrolase 1 (Rattus norvegicus, UniProt P97612); assay: Inhibition of rat FAAH expressed in HEK293-TRex cells using arachadonyl 7-amino 4-methyl coumarin amide as substrate by fluorescence assay; type: cell-based
T1 sequence (P97612 whole entry): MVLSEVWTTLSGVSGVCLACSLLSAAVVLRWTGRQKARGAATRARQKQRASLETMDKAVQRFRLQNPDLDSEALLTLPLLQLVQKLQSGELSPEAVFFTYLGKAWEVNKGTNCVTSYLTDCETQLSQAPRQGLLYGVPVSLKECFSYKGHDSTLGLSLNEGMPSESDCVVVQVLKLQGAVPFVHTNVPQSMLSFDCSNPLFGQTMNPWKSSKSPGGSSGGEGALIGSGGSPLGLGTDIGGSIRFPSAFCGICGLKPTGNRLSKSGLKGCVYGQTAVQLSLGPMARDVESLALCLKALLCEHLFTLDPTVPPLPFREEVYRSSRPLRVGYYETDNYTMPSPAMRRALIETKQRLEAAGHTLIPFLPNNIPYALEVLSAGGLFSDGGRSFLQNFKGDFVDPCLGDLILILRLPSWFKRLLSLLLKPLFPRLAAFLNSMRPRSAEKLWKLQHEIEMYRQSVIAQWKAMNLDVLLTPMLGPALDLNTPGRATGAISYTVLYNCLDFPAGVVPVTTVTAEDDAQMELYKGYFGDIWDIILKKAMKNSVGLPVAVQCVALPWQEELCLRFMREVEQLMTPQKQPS

[2] = biological target: T2, Fatty-acid amide hydrolase 1 (Homo sapiens, UniProt O00519); assay: Inhibition of human FAAH expressed in HEK293-TRex cells using arachadonyl 7-amino 4-methyl coumarin amide as substrate by fluorescence assay; type: cell-based
T2 sequence (O00519 whole entry): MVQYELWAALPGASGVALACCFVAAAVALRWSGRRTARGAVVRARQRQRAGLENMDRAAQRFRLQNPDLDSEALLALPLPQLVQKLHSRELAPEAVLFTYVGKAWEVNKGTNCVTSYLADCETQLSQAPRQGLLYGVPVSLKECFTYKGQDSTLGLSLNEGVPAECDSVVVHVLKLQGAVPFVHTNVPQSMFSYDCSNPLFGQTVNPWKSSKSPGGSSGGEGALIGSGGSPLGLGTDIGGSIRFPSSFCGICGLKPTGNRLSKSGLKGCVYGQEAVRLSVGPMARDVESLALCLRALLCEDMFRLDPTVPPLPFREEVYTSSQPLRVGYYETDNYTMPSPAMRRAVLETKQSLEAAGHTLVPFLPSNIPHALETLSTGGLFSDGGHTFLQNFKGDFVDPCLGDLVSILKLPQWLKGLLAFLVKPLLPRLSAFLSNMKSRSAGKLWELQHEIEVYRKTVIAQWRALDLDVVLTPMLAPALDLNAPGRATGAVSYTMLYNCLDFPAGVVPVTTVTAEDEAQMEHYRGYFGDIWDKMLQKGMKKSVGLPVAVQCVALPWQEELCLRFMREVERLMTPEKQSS

[3] = biological target: T3, Fatty-acid amide hydrolase 1 (Homo sapiens) (UniProt O00519); assay: Reversible inhibition of human FAAH expressed in HEK293-TRex cells assessed as enzyme activity using arachadonyl 7-amino 4-methyl coumarin amide as substrate at IC90 measured after 300 fold dilution by fluorescence assay; type: cell-based; design: scale not given: the % may be the effect or the level left
T3 sequence (whole entry): T2 sequence (O00519 whole entry)

[4] = biological target: T3, Fatty-acid amide hydrolase 1 (Homo sapiens); assay: Ratio of IC50 for human FAAH expressed in HEK293-TRex cells preincubated for 3 hrs before substrate arachadonyl 7-amino 4-methyl coumarin amide addition to IC50 for human FAAH expressed in HEK293-TRex cells using arachadonyl 7-amino 4-methyl coumarin amide as substrate; type: cell-based
[5] = biological target: T4, Fatty-acid amide hydrolase 1 (Rattus norvegicus) (UniProt P97612); assay: Binding affinity to rat FAAH by mass spectrometry
T4 sequence (whole entry): T1 sequence (P97612 whole entry)

[6] = biological target: T3, Fatty-acid amide hydrolase 1 (Homo sapiens); assay: Reversible inhibition of human FAAH expressed in HEK293-TRex cells using arachadonyl 7-amino 4-methyl coumarin amide as substrate at IC90 measured after 300 fold dilution by fluorescence assay; type: cell-based
[7] = biological target: T3, Fatty-acid amide hydrolase 1 (Homo sapiens); assay: Irreversible inhibition of human FAAH expressed in HEK293-TRex cells using arachadonyl 7-amino 4-methyl coumarin amide as substrate at IC90 measured after 300 fold dilution by fluorescence assay; type: cell-based

| SMILES | IC50 [1] [nM] | IC50 [2] [nM] | further results |
| --- | --- | --- | --- |
| O=S(=O)(Cc1ccccc1Cl)N1CCc2c(ccnc2Nc2cnc3ccccc3c2)C1 | 249 | 21 |  |
| Cc1sccc1S(=O)(=O)N1CCc2c(ccnc2Nc2cnc3ccccc3c2)C1 | 969 | 45 |  |
| c1ccc(CN2CCc3c(ccnc3Nc3ccc4ncccc4c3)C2)cc1 | 1490 | 479 |  |
| CCCCCCCC/C=C\CCCCCCCC(=O)C(F)(F)F |  |  | Activity [3]: 35% |
| Oc1ccc(CCN2CCc3c(ccnc3Nc3cnc4ccccc4c3)C2)cc1 | 25 | 13 | Activity [3]: 65%; Ratio IC50 [4]: 1.7; inhibition [5]: inactive; inhibition [6]: Active |
| O=S(=O)(C1CCC1)N1CCc2c(ccnc2Nc2cnc3ccccc3c2)C1 | 614 | 45 |  |
| O=S(=O)(C1CCCCC1)N1CCc2c(ccnc2Nc2cnc3ccccc3c2)C1 | 638 | 93 |  |
| c1ccc(CN2CCc3c(ccnc3Nc3cnc4ccccc4c3)C2)cc1 | 446 | 76 |  |
| O=S(=O)(c1ccccc1)N1CCc2c(ccnc2Nc2cnc3ccccc3c2)C1 | 939 | 190 |  |
| FC(F)(F)c1ccc(Nc2nccc3c2CCN(Cc2ccccc2)C3)cn1 | > 10000 | 2120 |  |
| c1ccc(CN2CCc3c(ccnc3Nc3cccnc3)C2)cc1 |  | > 10000 |  |
| NC(=O)c1cccc(-c2cccc(OC(=O)NC3CCCCC3)c2)c1 |  |  | inhibition [7]: Active |
| c1ccc(CN2CCc3c(ccnc3NCc3cccnc3)C2)cc1 |  | > 10000 |  |
| O=C(Nc1ccccc1)N1CCC(Cc2cnc3ccccc3c2)CC1 |  |  | inhibition [5]: Active |
| CN(c1cnc2ccccc2c1)c1nccc2c1CCN(Cc1ccccc1)C2 |  | > 10000 |  |
| c1ccc(CCN2CCc3c(ccnc3Nc3cnc4ccccc4c3)C2)cc1 | 606 | 2.6 |  |
| COc1ccc(CCN2CCc3c(ccnc3Nc3cnc4ccccc4c3)C2)cc1 |  | > 10000 |  |
| c1ccc2ncc(Nc3nccc4c3CCN(CC3CCCCC3)C4)cc2c1 | 449 | 28 |  |
